System: special operations veterans with combat and/or blast exposure
Experiment: Functional MRI: resting-state functional connectivity and lag projection analysis
Type: in vivo, human
Experimental: Functional magnetic resonance imaging (fMRI) was performed on the subjects enrolled in the study described in Example 1. Neuroimaging is a branch of medical imaging that focuses on the brain. It utilizes techniques of physics, optics, and mathematics to quantify brain structure and function. […] During resting, subjects are asked to do nothing and the aim is to observe the brain at rest. When the subject is asked to perform a task, the aim is to observe how the brain works in response to the task. Other magnetic resonance based imaging techniques include: anatomical, which measures cortical thickness, area, gyrification, and volume: arterial spin labelling, which quantitatively measures tissue perfusion, cerebral blood flow, where perfusion refers to the delivery of oxygen and nutrients to tissue by means of blood flow: and, diffusion tensor imaging, which measures diffusion of water through white natter, such as neural fiber tracts. fMRI can provide a series of images that form a film, as opposed to a single image obtained in MRI.
The human brain is a series of well-organized and optimized series of efficient networks. […] The functional connectivity networks evaluated in a region of interest in the brain included those identified in Table 2-1 of Example 2.
fMRI data was also analyzed to inspect activity patterns as a function of time. […]

## CCC1CC2CC3c4[nH]c5ccc(OC)cc5c4CCN(C2)C13 (centres unmarked) [ibogaine, Ibogaine]
Baseline vs about four days post treatment, paired T-test, fwec p<0.001
  lag projection of BOLD fMRI in left orbitofrontal gyrus and inferior frontal gyrus: relative slowing
Within a few days after treatment, persisted to one-month post treatment
  functional connection pairs in the brain networks reorganized (resting state functional connectivity): 22
